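Cells were grown in 96-well plates and exposed to each compound for 48 hours at five concentrations; endpoints were interpolated linearly between bracketing concentrations, or set to the highest concentration if not reached. GI50 = concentration required for 50% inhibition of growth. TGI: concentration producing complete growth inhibition.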
How the values were obtained:
Assay in all cases: NCI tumour cell line growth inhibition, 48 h
[1] = tested on: 786-0 renal
[2] = tested on: A549 NSCLC
[3] = tested on: ACHN renal
[4] = tested on: BT-549 breast
[5] = tested on: CAKI-1 renal
[6] = tested on: CCRF-CEM leukemia
[7] = tested on: COLO 205 colon
[8] = tested on: DU-145 prostate
[9] = tested on: EKVX NSCLC
[10] = tested on: HCC-2998 colon
[11] = tested on: HCT-116 colon
[12] = tested on: HCT-15 colon
[13] = tested on: HOP-62 NSCLC
[14] = tested on: HOP-92 NSCLC
[15] = tested on: HS 578T breast
[16] = tested on: HT29 colon
[17] = tested on: IGROV1 ovarian
[18] = tested on: KM12 colon
[19] = tested on: LOX IMVI melanoma
[20] = tested on: M14 melanoma
[21] = tested on: MCF7 breast
[22] = tested on: MDA-MB-231 breast
[23] = tested on: MDA-MB-435
[24] = tested on: MOLT-4 leukemia
[25] = tested on: NCI-H23 lung
[26] = tested on: NCI-H460 lung
[27] = tested on: NCI-H522 lung
[28] = tested on: NCI/ADR-RES ovarian
[29] = tested on: OVCAR-3 ovarian
[30] = tested on: OVCAR-4 ovarian
[31] = tested on: OVCAR-5 ovarian
[32] = tested on: PC-3 prostate
[33] = tested on: RPMI-8226 leukemia
[34] = tested on: SF-268 CNS
[35] = tested on: SF-295 CNS
[36] = tested on: SF-539 CNS
[37] = tested on: SK-MEL-2 melanoma
[38] = tested on: SK-MEL-28 melanoma
[39] = tested on: SK-MEL-5 melanoma
[40] = tested on: SK-OV-3 ovarian
[41] = tested on: SN12C renal
[42] = tested on: SNB-19 CNS
[43] = tested on: SNB-75 CNS
[44] = tested on: SW-620 colon
[45] = tested on: T-47D breast
[46] = tested on: TK-10 renal
[47] = tested on: U251 CNS
[48] = tested on: UACC-62 melanoma
[49] = tested on: UO-31 renal
[50] = tested on: A498 renal
[51] = tested on: HL-60(TB) leukemia
[52] = tested on: K-562 leukemia
[53] = tested on: MALME-3M melanoma
[54] = tested on: NCI-H226 lung
[55] = tested on: OVCAR-8 ovarian
[56] = tested on: RXF 393 renal
[57] = tested on: SR leukemia
[58] = tested on: UACC-257 melanoma

SMILES: COc1ccc(-c2cc(-c3cc(Cl)ccc3Cl)nc3nc(=S)[nH]c(N)c23)cc1
- GI50 [1]: 20.1 µM
- TGI [1]: 37.4 µM
- GI50 [2]: 15.2 µM
- TGI [2]: 41.8 µM
- GI50 [3]: 27.1 µM
- TGI [3]: 98.4 µM
- GI50 [4]: 54.9 µM
- TGI [4]: > 100 µM
- GI50 [5]: 10.6 µM
- TGI [5]: 62.1 µM
- GI50 [6]: 26.6 µM
- TGI [6]: > 100 µM
- GI50 [7]: 85.7 µM
- TGI [7]: > 100 µM
- GI50 [8]: 48.8 µM
- TGI [8]: > 100 µM
- GI50 [9]: 28.5 µM
- TGI [9]: > 100 µM
- GI50 [10]: 23.1 µM
- TGI [10]: 40.1 µM
- GI50 [11]: 15.1 µM
- TGI [11]: 28.4 µM
- GI50 [12]: 17.5 µM
- TGI [12]: > 100 µM
- GI50 [13]: 14.9 µM
- TGI [13]: 28.3 µM
- GI50 [14]: 11.8 µM
- TGI [14]: > 100 µM
- GI50 [15]: 14.6 µM
- TGI [15]: 74.8 µM
- GI50 [16]: 37.8 µM
- TGI [16]: > 100 µM
- GI50 [17]: 9.34 µM
- TGI [17]: > 100 µM
- GI50 [18]: 26.8 µM
- TGI [18]: > 100 µM
- GI50 [19]: 14.2 µM
- TGI [19]: 44.4 µM
- GI50 [20]: 24 µM
- TGI [20]: 45 µM
- GI50 [21]: 20.1 µM
- TGI [21]: > 100 µM
- GI50 [22]: 3.62 µM
- TGI [22]: 19.8 µM
- GI50 [23]: 3.93 µM
- TGI [23]: 17.6 µM
- GI50 [24]: 6.36 µM
- TGI [24]: > 100 µM
- GI50 [25]: 22.1 µM
- TGI [25]: 48.4 µM
- GI50 [26]: 47.6 µM
- TGI [26]: > 100 µM
- GI50 [27]: 28.2 µM
- TGI [27]: > 100 µM
- GI50 [28]: 20.1 µM
- TGI [28]: 45.2 µM
- GI50 [29]: 45.1 µM
- TGI [29]: > 100 µM
- GI50 [30]: > 100 µM
- TGI [30]: > 100 µM
- GI50 [31]: 20.1 µM
- TGI [31]: 51.4 µM
- GI50 [32]: 24.8 µM
- TGI [32]: > 100 µM
- GI50 [33]: 14.3 µM
- TGI [33]: > 100 µM
- GI50 [34]: 57.7 µM
- TGI [34]: > 100 µM
- GI50 [35]: 17.1 µM
- TGI [35]: 46.5 µM
- GI50 [36]: 27 µM
- TGI [36]: 82.9 µM
- GI50 [37]: 81.7 µM
- TGI [37]: > 100 µM
- GI50 [38]: 99.3 µM
- TGI [38]: > 100 µM
- GI50 [39]: 18.2 µM
- TGI [39]: 94.6 µM
- GI50 [40]: 47.2 µM
- TGI [40]: > 100 µM
- GI50 [41]: 19.1 µM
- TGI [41]: 65.7 µM
- GI50 [42]: 58.1 µM
- TGI [42]: > 100 µM
- GI50 [43]: 82.7 µM
- TGI [43]: > 100 µM
- GI50 [44]: 38.7 µM
- TGI [44]: > 100 µM
- GI50 [45]: > 100 µM
- TGI [45]: > 100 µM
- GI50 [46]: 7.35 µM
- TGI [46]: 38.5 µM
- GI50 [47]: 22.1 µM
- TGI [47]: 72.1 µM
- GI50 [48]: 6.94 µM
- TGI [48]: > 100 µM
- GI50 [49]: 58.1 µM
- TGI [49]: > 100 µM

SMILES: COc1cc2c(cc1OCCCOc1cc3c(cc1OC)C(=O)N1CCC[C@H]1CN3)N=C[C@@H]1CCCN1C2=O
- TGI [1]: 2.18 µM
- GI50 [50]: 0.262 µM
- TGI [50]: 0.668 µM
- TGI [2]: > 28.1 µM
- TGI [3]: 0.359 µM
- TGI [4]: 10.3 µM
- TGI [5]: 1.88 µM
- TGI [6]: > 100 µM
- TGI [8]: > 37.7 µM
- TGI [9]: > 49 µM
- GI50 [10]: 0.172 µM
- TGI [10]: 0.468 µM
- TGI [12]: > 24.5 µM
- TGI [51]: 0.68 µM
- TGI [13]: 0.892 µM
- TGI [16]: 13.7 µM
- TGI [17]: 0.451 µM
- TGI [52]: 0.483 µM
- TGI [18]: 0.327 µM
- TGI [19]: 10.8 µM
- TGI [20]: 0.24 µM
- TGI [53]: 0.268 µM
- TGI [22]: 16.6 µM
- TGI [23]: 0.29 µM
- TGI [24]: 0.148 µM
- TGI [54]: 0.398 µM
- TGI [25]: 0.709 µM
- TGI [28]: 24.8 µM
- TGI [29]: 0.342 µM
- TGI [30]: > 36.5 µM
- TGI [31]: 1.32 µM
- TGI [55]: 1.28 µM
- TGI [32]: 8.4 µM
- GI50 [33]: 0.156 µM
- TGI [33]: 0.654 µM
- TGI [56]: 2.55 µM
- TGI [34]: 0.473 µM
- TGI [35]: 0.671 µM
- TGI [36]: 0.411 µM
- TGI [37]: 0.365 µM
- TGI [38]: 0.749 µM
- TGI [40]: > 100 µM
- TGI [41]: > 33 µM
- TGI [42]: > 100 µM
- TGI [43]: 2.89 µM
- TGI [57]: 0.0265 µM
- TGI [44]: > 32.4 µM
- TGI [45]: > 100 µM
- TGI [46]: 0.554 µM
- TGI [58]: 0.516 µM
- TGI [49]: > 100 µM
